Laboratory results taken from patent US20140349943A1, “TOPICAL FORMULATIONS OF CHEMERIN C15 PEPTIDES FOR THE TREATMENT OF DERMATOLOGICAL CONDITIONS” (priority 2011, published 2014).
Peptide text beside a SMILES is read from it.

Target: T1, GPR1 (Homo sapiens, UniProt P46091)
T1 construct: host or cells: CHO
T1 sequence (P46091 1-355): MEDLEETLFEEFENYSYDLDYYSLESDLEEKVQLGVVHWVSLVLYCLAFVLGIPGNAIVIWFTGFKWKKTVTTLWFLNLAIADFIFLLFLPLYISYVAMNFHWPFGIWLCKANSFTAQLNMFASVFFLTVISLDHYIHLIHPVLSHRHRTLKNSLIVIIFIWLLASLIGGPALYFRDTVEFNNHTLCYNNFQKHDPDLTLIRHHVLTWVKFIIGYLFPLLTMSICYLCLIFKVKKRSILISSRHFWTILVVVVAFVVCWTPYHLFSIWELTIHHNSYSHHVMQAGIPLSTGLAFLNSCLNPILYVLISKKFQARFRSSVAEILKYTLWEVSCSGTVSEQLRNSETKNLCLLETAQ
Test: PathHunter β-Arrestin assay, GPR1, agonist and antagonist mode
Format: cell-based
Conditions: for agonist activity, in words / Rank Order / % Max Activity / % Max Inhibition / antagonist activity, in words: GPR1; for agonist activity, in words: FIG. 2A/2B; for Rank Order: agonist; for % Max Activity: agonist mode; for % Max Inhibition: antagonist mode, chemerin at EC80; for antagonist activity, in words: chemerin at 80% maximum signal
Method: The DiscoveRx PathHunter™ eXpress GPCR activity assay was employed to test agonist and antagonist activities of the chemerin peptides against the GPCRs ChemR23 and GPR1. Two assay formats were tested, the PathHunter β-Arrestin assay and the Hit Hunter cAMP Hunter assay.
The PathHunter β-Arrestin assay monitors the activation of a GPCR in a homogenous, non-imaging assay format using a technology developed by DiscoveRx called complementation, which utilizes an enzyme fragment complementation (EFC) assay with β-galactosidase (β-Gal) as the functional reporter. The enzyme is split into two complementary portions expressed as fusion proteins in the cell. The Enzyme Acceptor (EA) is fused to β-Arrestin and the ProLink donor peptide is fused to the GPCR of interest. Upon GPCR stimulation, β-Arrestin is recruited to the receptor for desensitization, bringing the two fragments of β-Gal together and allowing complementation to occur.
The assay involves CHO cell lines that express 1) a GPCR of interest (e.g. ChemR23 or GPR1) that has a fragment of the βgal enzyme fused to the C-terminus of the receptor and 2) a β-arrestin fused to the main β-gal enzyme. When the agonist binds to the receptor, β-arrestin is recruited to the receptor and the β-gal enzyme is complemented by the fragment from the GPCR thus forming a functional β-gal enzyme. A substrate is then added and luminescence is generated to detect β-arrestin recruitment.
The protocol used was a standard protocol employed by DiscoveRx PathHunter™ profiling service. […] Once it was established that the cells were healthy and growing normally, cells were passaged from flasks using cell dissociation reagent and seeded into white walled clear bottom 384-well microplates for compound profiling. For profiling, cells were seeded at a density of 5000 cells per well in a total volume of 20 μL and were allowed to adhere and recover overnight prior to compound addition.
For the agonist assay, intermediate dilution of compound stocks were generated such that 5 μL of 5× compound could be added to each well with a final DMSO concentration of 1% of total volume. For profiling compound in agonist mode, the cells were incubated in the presence of compound at 37° C. for 90 minutes.
For the antagonist assay, agonist dose curves were performed the morning of profiling to determine the EC80 value for the following antagonist testing with compounds. 5 μL of 5× agonist (i.e. chemerin) was added to each well with an equal concentration of vehicle present. EC80 agonist concentration was determined directly from agonist dose curve. For antagonist determination, cells were preincubated with antagonist followed by agonist challenge at the EC80 concentration: 4. 5 μL of 5× compound added to cells and incubated at 37° C. for 30 minutes. 5. 5 μL of 6× EC80 agonist added to cells and incubated at 37° C. for 90 minutes.
Microplates were read following signal generation with a PerkinElmer Envision™ instrument for chemiluminescent signal detection
Dose curves in the presence and absence of compound were plotted using GraphPad Prism or Activity Base. For agonist mode assays, percentage activity was calculated using the following formula: % Activity=100%×(Mean RLU of test sample−mean RLU of vehicle control)/(mean MAX RLU control ligand−mean RLU of vehicle control)). For antagonist mode assays, percentage inhibition was calculated using the following formula: % Inhibition=100%×(1−(Mean RLU of test sample−mean RLU of vehicle control)/(mean RLU of EC80 control−mean RLU of vehicle control)).

Row | Structure (SMILES) | IC50 | agonist activity, in words | Rank Order | % Max Activity | % Max Inhibition | antagonist activity, in words
1 | C[C@H](N)C(=O)NCC(=O)N[C@@H](CCC(=O)O)C(=O)N[C@@H](CC(=O)O)C(=O)N1CCC[C@H]1C(=O)N[C@@H](Cc1c[nH]cn1)C(=O)N[C@@H](CO)C(=O)N[C@@H](Cc1ccccc1)C(=O)N[C@@H](Cc1ccc(O)cc1)C(=O)N[C@@H](Cc1ccccc1)C(=O)N1CCC[C@H]1C(=O)NCC(=O)N[C@@H](CCC(N)=O)C(=O)N[C@@H](Cc1ccccc1)C(=O)N[C@@H](C)C(=O)O [C15 (human)] (H-AGEDPHSFYFPGQFA-OH; N-terminus and C-terminus assumed) | > 10 µM | neither human nor mouse chemerin C15 peptides acted as agonists | 3 | 10.6% | 0% | neither human nor mouse chemerin C15 peptides acted as antagonists
2 | C[C@H](N)C(=O)NCC(=O)N[C@@H](CCC(=O)O)C(=O)N[C@@H](CC(=O)O)C(=O)N1CCC[C@H]1C(=O)N[C@@H](Cc1c[nH]cn1)C(=O)N[C@@H](CO)C(=O)N[C@@H](Cc1ccccc1)C(=O)N[C@@H](Cc1ccc(O)cc1)C(=O)N[C@@H](Cc1ccccc1)C(=O)N1CCC[C@H]1C(=O)NCC(=O)N[C@@H](CCC(N)=O)C(=O)N[C@@H](Cc1ccccc1)C(=O)N[C@@H](C)C(=O)N[C@@H](Cc1ccccc1)C(=O)N[C@@H](CO)C(=O)O [C17 (human)] (H-AGEDPHSFYFPGQFAFS-OH; N-terminus and C-terminus assumed) | > 10 µM | exhibited agonist activity | 1 | 80.9% | 0% | –
3 | CC(C)C[C@H](NC(=O)[C@H](Cc1ccccc1)NC(=O)[C@H](Cc1ccc(O)cc1)NC(=O)CNC(=O)[C@H](Cc1c[nH]cn1)NC(=O)[C@@H]1CCCN1C(=O)[C@H](CC(=O)O)NC(=O)[C@H](CCC(=O)O)NC(=O)CNC(=O)[C@H](C)N)C(=O)N1CCC[C@H]1C(=O)NCC(=O)N[C@@H](CCC(N)=O)C(=O)N[C@@H](Cc1ccccc1)C(=O)N[C@@H](C)C(=O)O [mC15] (H-AGEDPHGYFLPGQFA-OH; N-terminus and C-terminus assumed) | > 10 µM | neither human nor mouse chemerin C15 peptides acted as agonists | 4 | 27.8% | 0% | neither human nor mouse chemerin C15 peptides acted as antagonists
